According to patent publication US20230000842A1, “METHODS OF TREATING CARTILAGE DISORDERS THROUGH INHIBITION OF CLK AND DYRK” (SAMUMED, LLC, priority 2019, published 2023):

What was measured:
[1] = target: CLK2 kinase (Homo sapiens, UniProt P49760); assay: CLK2 kinase activity assay (Z-lyte FRET); assay type: biochemical; details: Z-lyte Ser/Thr 6 peptide, 60 μM ATP, 1 h at room temperature;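 further: FRET read-out as coumarin to fluorescein emission ratio, unphosphorylated peptide as 0% and phosphorylated peptide as 100% controls, duplicate reactions, non-linear regression fit of dose-response curves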
CLK2 kinase, sequence (P49760 whole entry): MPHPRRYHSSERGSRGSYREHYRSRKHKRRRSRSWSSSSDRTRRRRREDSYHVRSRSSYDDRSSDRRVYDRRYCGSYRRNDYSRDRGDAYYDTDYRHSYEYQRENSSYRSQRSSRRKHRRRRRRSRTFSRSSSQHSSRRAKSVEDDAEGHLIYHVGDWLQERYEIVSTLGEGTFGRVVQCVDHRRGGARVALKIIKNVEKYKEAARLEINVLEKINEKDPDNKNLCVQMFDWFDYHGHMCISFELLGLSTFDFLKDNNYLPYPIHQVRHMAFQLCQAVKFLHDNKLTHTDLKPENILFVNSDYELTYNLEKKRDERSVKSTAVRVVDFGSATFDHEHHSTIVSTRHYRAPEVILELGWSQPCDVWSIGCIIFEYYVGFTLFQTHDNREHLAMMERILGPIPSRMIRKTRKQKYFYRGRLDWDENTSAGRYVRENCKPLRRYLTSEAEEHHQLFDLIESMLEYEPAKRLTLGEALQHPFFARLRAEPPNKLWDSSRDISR

[2] = target: CLK3 kinase (Homo sapiens, UniProt P49761); assay: CLK3 kinase activity assay (Z-lyte FRET); assay type: biochemical; details: Z-lyte Ser/Thr 18 peptide, 156 μM ATP, 1 h at room temperature;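 further: kinase activity read as coumarin/fluorescein emission ratio by FRET, unphosphorylated peptide as 0% and phosphorylated peptide as 100% control, values from non-linear regression of dose-response curves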
CLK3 kinase, sequence (P49761 whole entry): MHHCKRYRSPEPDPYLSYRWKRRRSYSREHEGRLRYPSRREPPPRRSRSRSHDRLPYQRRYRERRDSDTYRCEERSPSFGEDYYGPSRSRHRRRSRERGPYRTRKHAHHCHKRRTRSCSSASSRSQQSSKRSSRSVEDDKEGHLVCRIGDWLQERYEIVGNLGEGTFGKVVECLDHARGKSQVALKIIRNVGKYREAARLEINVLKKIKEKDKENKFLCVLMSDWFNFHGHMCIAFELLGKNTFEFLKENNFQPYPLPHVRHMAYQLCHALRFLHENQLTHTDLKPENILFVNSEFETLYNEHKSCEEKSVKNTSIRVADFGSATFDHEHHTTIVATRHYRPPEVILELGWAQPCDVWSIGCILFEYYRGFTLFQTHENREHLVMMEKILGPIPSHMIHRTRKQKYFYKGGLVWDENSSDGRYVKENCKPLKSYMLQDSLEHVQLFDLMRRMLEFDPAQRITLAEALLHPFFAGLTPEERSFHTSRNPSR

[3] = tested on: primary human mesenchymal stem cells (hMSCs); assay: Chondrogenesis screening using primary human mesenchymal stem cells; assay type: cell-based; details: Homo sapiens, Mesenchymal stem cells, hMSC chondrogenesis; for EC50: concentration required to induce 50% levels of chondrogenesis with TGF-β3 as positive control, read-out: Conc (nM) of 50% TGF-β3 activity; for Emax: maximum activity relative to TGF-β3 (10 ng/mL) positive control, read-out: Max. Activity as % TGF-β3 activity
Summary of the method: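 Derived values are EC50 for 50% chondrogenesis, maximal activity and the dose giving it. These come from nodule area in passage 3–6 primary hMSCs, expressed as fold change over the mean of 3 same-plate DMSO wells, 2–3 replicates per concentration. TGF-β3 served as positive control.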

[4] = tested on: Wnt pathway activity (SW480 colon carcinoma cells stably expressing the Sp5-Luc reporter); assay: Wnt pathway activity screening assay (Sp5-Luc reporter gene assay); details: Homo sapiens, SW480, Table 4; SW480 cells stably expressing Sp5-Luc reporter, 10-point dose-response from 10 μM, 36 to 48 hours

| SMILES | EC50 [1] | EC50 [2] | EC50 [3] | Emax [3] | EC50 [4] |
| --- | --- | --- | --- | --- | --- |
| CN(C)Cc1cncc(-c2ccc3[nH]nc(-c4cc5c(N6CCCCC6)cccc5[nH]4)c3c2)c1 [compound 464] | 13 nM | 3660 nM | 10 nM | 205% | 575 nM |
| CN(C)Cc1cncc(-c2ccc3[nH]nc(-c4cc5c(N6CCCCC6)nccc5[nH]4)c3c2)c1 [compound 465] | 2 nM | 293 nM | – | 220% | 4710 nM |
| c1ncc(-c2ccc3[nH]nc(-c4cc5c(N6CCCCC6)cncc5[nH]4)c3c2)cc1CN1CCCC1 [compound 466] | 3 nM | 64 nM | – | 24.7% | 1840 nM |
| FC1(F)CCN(Cc2cncc(-c3ccc4[nH]nc(-c5cc6c(N7CCCCC7)cccc6[nH]5)c4c3)c2)C1 [compound 467] | 12 nM | 279 nM | 30 nM | 160% | 750 nM |
| FC1(F)CCN(Cc2cncc(-c3ccc4[nH]nc(-c5cc6c(N7CCCCC7)ccnc6[nH]5)c4n3)c2)C1 [compound 468] | 5 nM | 166 nM | – | 37.6% | 5270 nM |
| c1cc2[nH]c(-c3n[nH]c4ccc(-c5cncc(CN6CCCCC6)c5)cc34)cc2c(N2CCCCC2)n1 [compound 469] | 6 nM | 470 nM | – | 48.1% | 4210 nM |
| CN1CCN(c2cncc3[nH]c(-c4n[nH]c5ccc(-c6cncc(N)c6)cc45)cc23)CC1 [compound 470] | 2 nM | 40 nM | – | 50.9% | 8250 nM |
| CN1CCN(c2ccnc3[nH]c(-c4n[nH]c5ccc(-c6cncc(N)c6)cc45)cc23)CC1 [compound 471] | 3 nM | 89 nM | – | 50.2% | 1170 nM |
| CN1CCN(c2nccc3[nH]c(-c4n[nH]c5cnc(-c6cncc(N)c6)cc45)cc23)CC1 [compound 472] | 10 nM | 1080 nM | – | 49.8% | > 10000 nM |
| CCC(=O)Nc1cncc(-c2cc3c(-c4cc5c(N6CCN(C)CC6)nccc5[nH]4)n[nH]c3cn2)c1 [compound 473] | 3 nM | 285 nM | 30 nM | 70% | > 10000 nM |
| CC(C)C(=O)Nc1cncc(-c2cc3c(-c4cc5c(N6CCN(C)CC6)cccc5[nH]4)n[nH]c3cn2)c1 [compound 474] | 17 nM | 2040 nM | – | 36.4% | 700 nM |
| CC(C)C(=O)Nc1cncc(-c2ccc3[nH]nc(-c4cc5c(N6CCN(C)CC6)nccc5[nH]4)c3c2)c1 [compound 475] | 11 nM | 569 nM | – | 21% | 7690 nM |
| CC(C)C(=O)Nc1cncc(-c2cnc3[nH]nc(-c4cc5c(N6CCN(C)CC6)nccc5[nH]4)c3c2)c1 [compound 476] | 7 nM | 800 nM | 30 nM | 61.6% | > 10000 nM |
| CC(C)CC(=O)Nc1cncc(-c2ccc3[nH]nc(-c4cc5c(N6CCN(C)CC6)ccnc5[nH]4)c3n2)c1 [compound 477] | 3 nM | 204 nM | – | 49.5% | 3450 nM |
| CN1CCN(c2nccc3[nH]c(-c4n[nH]c5cnc(-c6cncc(NC(=O)C(C)(C)C)c6)cc45)cc23)CC1 [compound 478] | 9 nM | 137 nM | 10 nM | 88.2% | 1880 nM |
| CN1CCN(c2cncc3[nH]c(-c4n[nH]c5ccc(-c6cncc(NC(=O)CC(C)(C)C)c6)cc45)cc23)CC1 [compound 479] | 4 nM | 145 nM | – | 30.8% | 3480 nM |
| CN1CCN(c2ccnc3[nH]c(-c4n[nH]c5ccc(-c6cncc(NC(=O)CC(C)(C)C)c6)nc45)cc23)CC1 [compound 480] | 7 nM | 186 nM | – | 30.3% | 3870 nM |
